Results from publication PMC11590106, “Computational Model-Assisted Development of a Nonenzymatic Fluorescent Glucose-Sensing Assay” (ACS Sensors, 2024).

What was measured:
Concanavalin A (ConA) [1] = target: T1, Concanavalin A (ConA) (Canavalia ensiformis, UniProt P02866); test: competitive fluorescence anisotropy, displacement of Cy5.5-mannotetraose from PEG-ConA; type: binding; design: ConA Type IV (Sigma), PEGylated (5 kDa mPEG)
Concanavalin A (ConA) [2] = target: T1, Concanavalin A (ConA); test: fluorescence anisotropy titration (association constant Ka); type: binding; design: ConA Type IV (Sigma), PEGylated (5 kDa mPEG); tetramer treated as one protein

T1 sequence (P02866 164-281 limits assumed): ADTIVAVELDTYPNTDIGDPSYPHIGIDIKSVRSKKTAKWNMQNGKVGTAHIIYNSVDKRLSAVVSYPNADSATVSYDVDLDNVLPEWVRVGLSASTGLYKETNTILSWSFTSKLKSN
T1 sequence (P02866 30-148 limits assumed): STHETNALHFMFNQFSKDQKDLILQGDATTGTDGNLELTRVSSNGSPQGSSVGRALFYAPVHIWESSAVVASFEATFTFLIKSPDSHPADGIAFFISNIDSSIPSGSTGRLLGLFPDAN

Row | Molecule | competitive fluorescence anisotropy, displacement of Cy5.5-mannotetraose from PE (Concanavalin A (ConA) [1]) | fluorescence anisotropy titration (association constant Ka) (Concanavalin A (ConA) [2])
1 | OC[C@H]1OC(O)[C@H](O)[C@@H](O)[C@@H]1O (stereo partly drawn) [glucose] | a sensitive response of the assay was observed for various glucose concentrations within the physiological range | –
2 | Cy5.5-mannobiose | – | 1.73 × 10^6 M^–1
3 | Cy5.5-mannotriose | – | 5.33 × 10^6 M^–1
